Our source for the melting point values is a melting point compilation (Tetko et al.; mined from patent text by program, amines drawn as free bases though some values may be those of a salt).

Some results are limits rather than exact numbers.

For the compound `CC1C(=O)c2cc([N+](=O)[O-])ccc2OC1(C)C` (stereo not drawn), the melting point was 78 °C.

Regarding `Fc1cccc2c1OC1CN(Cc3ccccc3)CC1O2` (stereo not drawn), the melting point is 80 to 81 °C.

As for `COc1ccc(F)c(-n2c(=O)[nH]c3c(C(N)=O)nc(-c4cccc(O)c4)nc32)c1`, the melting point is > 260 °C.

`CC(=O)Nc1ccc(C(=O)N2CC3CC(CN(Cc4ccccc4)C3)C2)cc1` registered a melting point of 208 °C.

Take `CCCN(Cc1ccc(-c2ccccc2-c2nc(=S)o[nH]2)cc1)c1nc(C)ncc1C(=O)OCC`: the melting point lay within 170 to 172 °C.

In turn, `Cc1sc2ncc(C(O)C=Cc3ccccc3)n2c1C` (stereo not drawn) showed a melting point of 149 to 151 °C.

`Cc1nc2cc(-c3ccnc(-c4cn(C)c(=O)n4-c4ccc(C(C)(C)C#N)cc4)c3)cnc2[nH]1` registered a melting point of 288 °C.

`N#CC1=Nc2nc(C3CCCC3)[nH]c2C2=N[C@H](Cc3ccccc3)CN12`: the melting point was in the range of 140 to 142 °C.

Compound `COc1ccc(C(=O)Cc2ccc3ccccc3c2)cc1` came in with a melting point of 132 to 134 °C.

`N=C(CSc1nc2cc(Cl)ccc2s1)NO` came in with a melting point of 155 to 157 °C.

Take `O=C1[C@H]2CCC[C@H]2N(C(=O)CCCCCn2ccnc2)c2ccccc2N1Cc1ccccc1` (relative stereo): the melting point lay within 133 to 134 °C.

The compound `O=c1c2ccccc2nc(CCl)n1-c1ccc(Cl)cc1` came in with a melting point of 234 to 235 °C.

Regarding `O=C1C(c2ccccc2)=C(c2ccccc2)C(=O)N1C1CCCCC1`, the melting point lay in the range of 159 to 160 °C.

The compound `CCCCOC(=O)[C@H]1CN(c2ccc3c(c2)oc(=O)n3C)C(=O)O1` yielded a melting point of 182 to 184 °C.

Turning to `CC(=O)NOCc1nc2c(N)nc3c(c2n1CC(C)C)CCCC3`, the melting point was 187 to 188 °C.

In turn, `CS(=O)(=O)c1ccc(C(=O)Nc2ccc(-n3nc(C(F)(F)F)cc3C(F)(F)F)cc2)c(Cl)c1` yielded a melting point of 219 to 220 °C.

Compound `CCOC(=O)COc1cc(-c2ccc(C)cc2)nc2cccc(C(F)(F)F)c12` returned a melting point of 134 °C.

Consider `C=C(c1ccc(-c2nnc(N)s2)cc1)C(O)(Cn1cncn1)c1ccc(F)cc1F` (stereo not drawn), for which the melting point is 118 to 121 °C.

As to `CC1CCCC(C)N1Cc1ccc(N)cc1` (stereo not drawn), the melting point fell in the range of 112 to 115 °C.

Regarding `CN1C(=O)C(=CC(=O)O)SC1=Nc1ccc(Cl)c(Cl)c1`, the melting point fell in the range of 225 to 226 °C.

`O=C1NC(=O)C(Cc2ccc(N3CCC(NC[C@H](O)c4ccc5nnnn5c4)CC3)cc2)S1` (stereo partly drawn) returned a melting point of 130 to 132 °C.

For the compound `Cn1ncc(C(=O)N2CCOCC2)c1C(=O)Nc1ccn2nc(-c3cccnc3F)nc2c1`, the melting point fell in the range of 267 to 269 °C.

The compound `COC(=O)c1ccc2cc(OC)c(OC)cc2c1O` came in with a melting point of 144 to 145 °C.

In turn, `CCCN(CCC)C(=O)CNc1nc(-c2ccccc2)ncc1[N+](=O)[O-]` registered a melting point of 142 to 143 °C.

`CC=Cn1c(C)c(C)c2cnnc(OCc3ccc(F)cc3)c21` yielded a melting point of 114 to 115 °C.

For `O=C(Nc1cccnc1)c1ccc([N+](=O)[O-])cc1`, the melting point lay within 191 to 194 °C.

The compound `O=C(CCCCN1CCCCC1)c1ccc2c(c1)Cc1cc(C(=O)CCCCN3CCCCC3)ccc1S2` displayed a melting point of 98.5 to 99.5 °C.

`CC(=O)c1cccn1[C@@H](Cc1ccc(OCCc2nc(-c3ccccc3)oc2C)cc1)C(=O)O` displayed a melting point of 110 to 112 °C.

`CCOC(=O)c1ccc2c(N)cccc2c1` yielded a melting point of 94 to 95 °C.

In turn, `NC(=O)c1c(Cl)c(Cl)c(Cl)c(Cl)c1C(=O)O` had a melting point of 113 to 114 °C.

In the case of `N=C(N)c1ccc2cc(OC(=O)[C@H]3CC[C@H](CN)CC3)ccc2c1`, the melting point is 147 °C.

Compound `O=S(c1nc2ccccc2s1)N1CCOCC1` (stereo not drawn) yielded a melting point of 93 to 94 °C.

`COc1ccc(Nc2nnc(Cc3ccncc3)c3ccccc23)cc1Cl` gave a melting point of 195 to 197 °C.

The compound `COc1cc(C=CC=O)cc(OC)c1OCc1ccccc1` showed a melting point of 114 to 115 °C.

Compound `CC1(C)N=C(n2nc(O)ccc2=O)c2cc(Br)ccc2O1` had a melting point of 196 to 198 °C.

`CCOC(=O)c1cn(C)c2cnc3c(F)c(Cl)c(N4CCN(c5ccc(C)c(F)c5)CC4)cc3c2c1=O` gave a melting point of 350 °C.

Compound `CCOC1CCN(C(=O)c2cc(-c3ccccc3)c(=O)n3ccc4ccsc4c23)C1` (stereo not drawn) yielded a melting point of 167 to 170 °C.

Compound `O=S1(=O)c2ccc(Cl)c3cccc(c23)N1CCCN1CCN(c2ccc(F)cc2)CC1` came in with a melting point of 125 °C.

Turning to `CCCCCCCCCCCN=C1SC(=CC(=O)O)C(=O)N1CCCCCCCCCCC`, the melting point was in the range of 67 to 68 °C.

In the case of `Cc1[nH]c(=O)n(C(C)C)c1-c1ccc(C2CCCCC2)cc1`, the melting point was determined as 274 °C.

On to `CN(Cc1ccccc1)Cc1c(-c2ccc([N+](=O)[O-])cc2)sc2c1c(=O)c(C(=O)c1ccccc1)cn2Cc1c(F)cccc1F`, for which the melting point lay in the range of 197 to 199 °C.

Turning to `CCc1nc(NC(C)C)c([N+](=O)[O-])c(SC2CCCCC2)n1`, the melting point was in the range of 69 to 71 °C.

As for `CS(=O)(=O)c1ccc(-c2cnn(CC(=O)c3csc4ccccc34)c(=O)c2-c2ccc(F)cc2)cc1`, the melting point is 183 to 184 °C.

In turn, `CC(c1cccc2c1Sc1c(O[Si](c3ccccc3)(c3ccccc3)C(C)(C)C)cccc1N2C)N1C(=O)c2ccccc2C1=O` (stereo not drawn) yielded a melting point of 182 to 184 °C.

The compound `COC(=O)c1cocc1-n1c(OC)nn(C)c1=O` had a melting point of 131 to 133 °C.

Compound `CCc1nc(-c2cccc(C#N)c2)c(-c2ccnc(N)c2)s1` gave a melting point of 178 to 179 °C.

`CNc1nc(C)c(-c2nc3ccccc3c(=O)n2-c2ccc(C(C)=O)cc2)s1` showed a melting point of 245 to 246 °C.

In the case of `CC(CCOS(N)(=O)=O)Oc1ccccc1` (stereo not drawn), the melting point was in the range of 76 to 77 °C.

`CN(C)c1ccc(N=Nc2nc3ccccc3s2)cc1` registered a melting point of 243 to 246 °C.

In turn, `CC(C)c1nc(CNS(C)(=O)=O)n(C)c1Sc1cc(Cl)cc(Cl)c1` gave a melting point of 116 to 118 °C.

Consider `CCOC(=O)C1=C(C(F)(F)F)Nc2n[nH]cc2C1c1cccs1` (stereo not drawn), for which the melting point was in the range of 157 to 161 °C.

On to `COC(=O)CCc1ccc(-n2ccn(-c3ccc(C(=N)NC(=O)OC)cc3)c2=O)cc1`, for which the melting point is > 260 °C.

Take `COc1ccc2c(c1OC)CCOC2CCl` (stereo not drawn): the melting point was 63 to 65 °C.

`Cc1csc2nccn12` showed a melting point of 165 to 168 °C.

`O=c1oc2c(c(=O)n1C1CCCCCCC1)CCC2` yielded a melting point of 48 to 51 °C.

Take `NC(=O)c1ccc(F)c2c1OCC(N(CCCc1c[nH]c3ccc(F)cc13)C1CCC1)C2` (stereo not drawn): the melting point worked out at 132 °C.

For `CCOC(=O)c1ccc(Cl)c(S(=O)(=O)Cl)c1`, the melting point was 143 to 145 °C.

In the case of `O=C(NC(=O)C(Br)CBr)Nc1ccccc1` (stereo not drawn), the melting point is 160 to 161 °C.

The compound `COc1ccc(CSc2ccc3c(c2)C=CC(C)(C)O3)cc1` displayed a melting point of 58 to 59 °C.

On to `COC(=O)c1ccc(-c2ccccc2-c2nnn(C(C)(C)c3ccccc3)n2)cc1`, for which the melting point was in the range of 97 to 98 °C.

With `CCCCc1ncc(/C=C(/C(=O)O)c2ccccc2)n1Cc1ccccc1Cl`, the melting point lay within 210 to 212 °C.

In turn, `CC(C)(CN)Nc1ncc2ncnc(Nc3ccc(F)c(Cl)c3)c2n1` displayed a melting point of 196 to 201 °C.

Regarding `CC(C)[C@H](NC(=O)N(C)Cc1cscn1)C(=O)N[C@@H](Cc1ccccc1)C[C@H](O)[C@H](Cc1ccccc1)NC(=O)OCc1cccnc1`, the melting point was in the range of 69 to 73 °C.

In the case of `Cc1n[nH]c(-c2ccc(F)cc2)c1-c1ccc2c(c1)NC(=O)CO2`, the melting point lay within 295 to 298 °C.

On to `CCCCCCCCCCCCCCCCCCOc1cc(C(=O)O)cc(N(CC(=O)O)CC(=O)O)c1`, for which the melting point lay in the range of 149 to 155 °C.

The compound `COc1cc(S(C)(=O)=O)ccc1-c1nc(C)c(-c2cccnc2)[nH]1` had a melting point of 115 to 118 °C.

In turn, `CCCC(C)C(=O)Nc1cccc(O)c1` (stereo not drawn) displayed a melting point of 136 to 137 °C.

In turn, `Cc1ncc2c(C#N)c(-c3ccc(S(=O)(=O)N[C@@H](C)C4CC4)cn3)n(C3CCC3)c2n1` came in with a melting point of 155 to 157 °C.

As for `CS(=O)(=O)c1ncnn1C[C@]1(c2ccccc2Cl)O[C@@H]1c1ccc(Cl)cc1Cl` (relative stereo), the melting point fell in the range of 129 to 133 °C.

Compound `CC(C)(C)C(=O)NCCCOc1ccncc1` returned a melting point of 71.5 to 72.5 °C.

On to `CCCCn1c(=O)n(Cc2ccccc2)c(=O)c2c(Cl)cc(Cl)cc21`, for which the melting point fell in the range of 108 to 110 °C.

`Cc1cc(=O)n2nc(SCc3ccc(Cl)cc3)sc2n1` returned a melting point of 138 to 140 °C.

Regarding `CC(=O)N(N=Cc1c(Cl)cccc1Cl)c1nncn1N(C)C(C)=O`, the melting point lay within 167 to 169 °C.

In turn, `BrC(Br)(Br)c1ccc2cc(I)ccc2n1` came in with a melting point of 124 to 126 °C.

The compound `Cc1c(-c2ccccc2)nn2c1-c1ccccc1CC2` gave a melting point of 122 to 124 °C.

As for `COc1cc(Cc2ccc(N)c(C#N)c2)cc(OC)c1`, the melting point was in the range of 105 to 107 °C.

With `COc1ccc(S(=O)(=O)C2(Cc3ccccc3)SC(=O)N(CC(=O)NO)C2=O)cc1` (stereo not drawn), the melting point was in the range of 81 to 85 °C.

For the compound `CCOC(=O)c1cn(CC)c2nc3cc(Cl)c(F)cc3cc2c1=O`, the melting point was 300 to 301 °C.

In turn, `COC(=O)C(Cl)Cc1ccc(-n2c(=O)cc(C(F)(F)F)n(C)c2=O)c(F)c1` (stereo not drawn) showed a melting point of 101 to 103 °C.

In turn, `CCCCOC(=O)c1ccc2ccc(C(=O)O)nc2c1OC(=O)C(C)(C)C` gave a melting point of 158 °C.

`O=Cc1ccccc1OCCOc1ccccc1C=O` came in with a melting point of 129 °C.

`COc1ccccc1CNC(=O)c1ccc2nc(NCc3ccccc3OC)ccc2c1` registered a melting point of 108 °C.

As for `COc1cc(C=CC(=O)c2cc(OC)c(OC)c(OC)c2)cc([N+](=O)[O-])c1O`, the melting point lay within 123 to 125 °C.

For the compound `FCC(F)(F)Sc1nc(-c2ccccc2)c(-c2ccccc2)[nH]1`, the melting point was 225 to 226 °C.

In turn, `COC(=O)C1=C(C)NC(C)=C(C(=O)OC)C1c1ccccc1-c1cccs1` had a melting point of 173 to 175 °C.

`NC(=O)N1CCSC1c1ccccc1OCCN1CCN(c2cccc(F)c2)CC1` (stereo not drawn): the melting point was in the range of 142 to 143 °C.

Consider `CCN(CC)OC(C(=O)O)(C(=O)O)c1ccccc1`, for which the melting point is > 250 °C.

`O=C(NN=Cc1ccc(C(F)(F)F)cc1)c1ccc(O)cc1`: the melting point worked out at 260 °C.

In general, melting point refers to the temperature, or range, at which the solid turns liquid.
